Data reported in BindingDB's records for patent WO2022101377 (Boehringer Ingelheim International, 2022).

molecular target: Platelet-activating factor receptor (Homo sapiens, UniProt P25105); assay: EVALUATION OF THE INHIBITION OF PAFR ACTIVATION
Protocol: USING AN ENDPOINT ASSAY HEK293 cells overexpressing human PAFR (produced in-house) are seeded into a Poly-D-Lysine coated 384 well white cell culture microtiter assay plate with lid (15.000 cells per well). Subsequently, the plates are incubated over night at 37 °C/5% CO2. On the next day, cells are being washed and subsequently, various concentrations of the test compounds (compounds in 100% DMSO; final concentratrion of DMSO in wells is 1%) are added to the assay plate via Echo 555 acoustic liquid handler. Plates are then incubated with lid for 90 minutes at 37 °C/5% CO2. Thereafter, PAF ligand (Cayman Chemical Company, Item no.: 60900) is added at a final concentration of 11 nM. Plates are then incubated with lid for 60 minutes at 37 °C/5% CO2. Then, 5 µl per well of Anti-IP1-Antibody-Cryptate solution and 5 µL per well of IP1-d2 solution are added to all wells of the plate and the plate is incubated for another 60 minutes light protected at room temperature. The emissions at 620 nm and 665 nm (Excitation wavelength: 320 nm) are measured using an Envision Reader (PerkinElmer).

Sequence of Platelet-activating factor receptor (P25105 whole entry): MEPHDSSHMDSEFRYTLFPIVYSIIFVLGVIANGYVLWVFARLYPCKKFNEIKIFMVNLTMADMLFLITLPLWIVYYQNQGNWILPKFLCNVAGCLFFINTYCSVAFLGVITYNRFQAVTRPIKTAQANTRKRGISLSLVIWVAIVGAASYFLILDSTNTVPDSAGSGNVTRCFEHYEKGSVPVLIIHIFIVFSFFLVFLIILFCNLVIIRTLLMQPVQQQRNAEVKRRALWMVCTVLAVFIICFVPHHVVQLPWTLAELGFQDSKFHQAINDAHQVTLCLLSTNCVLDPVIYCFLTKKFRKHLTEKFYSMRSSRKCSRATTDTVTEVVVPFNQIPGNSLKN

Row | Compound | IC50 [nM]
1 | Cc1nnc2n1-c1sc3c(c1C(c1cc(F)cc(F)c1)NC2)CC(C(=O)N1CCOCC1)C3 (stereo unspecified) [WO2022101377, Example 58] | > 322
2 | Cc1nnc2n1-c1sc3c(c1C(c1ccccc1C1CC1)NC2)CC(C(=O)N1CCOCC1)C3 (stereo unspecified) [WO2022101377, Example 59] | > 322
3 | Cc1nnc2n1-c1sc3c(c1C(c1ccccc1CO)NC2)CC(C(=O)N1CCOCC1)C3 (stereo unspecified) [WO2022101377, Example 60] | > 322
4 | Cc1nnc2n1-c1sc3c(c1C(c1ccccc1O)NC2)CC(C(=O)N1CCOCC1)C3 (stereo unspecified) [WO2022101377, Example 61] | > 322
5 | Cc1ccccc1[C@H]1NCc2nnc(C)n2-c2sc3c(c21)C[C@H](C(=O)N1CCOCC1)C3 [WO2022101377, Example 63] | > 568
6 | Cc1nnc2n1-c1sc3c(c1C(c1ccccc1)NC2)CC(C(=O)N1CCOCC1)C3 (stereo unspecified) [WO2022101377, Example 74] | 102

More lines, now with the values ahead:

Row | IC50 [nM] | Compound
7 | > 322 | COc1ccccc1C1NCc2nnc(C)n2-c2sc3c(c21)CC(C(=O)N1CCOCC1)C3 (stereo unspecified) [WO2022101377, Example 54]
8 | > 322 | Cc1nnc2n1-c1sc3c(c1C(c1ccccc1C(F)(F)F)NC2)CC(C(=O)N1CCOCC1)C3 (stereo unspecified) [WO2022101377, Example 56]
9 | 2.7 | Cc1nnc2n1-c1sc3c(c1C(c1ccccc1Cl)NC2)C[C@H](C(=O)N1CCCC2(CC2)C1)C3 (stereo partly specified) [WO2022101377, Example 66]
10 | 235 | CSc1ccccc1C1NCc2nnc(C)n2-c2sc3c(c21)CC(C(=O)N1CCOCC1)C3 (stereo unspecified) [WO2022101377, Example 79]
11 | 110 | CCCc1nnc2n1-c1sc3c(c1C(c1ccccc1Cl)NC2)CC(C(=O)N1CCOCC1)C3 (stereo unspecified) [WO2022101377, Example 80]
